These results are taken from patent US20250204247A1, “DISPLAY APPARATUS AND ELECTRONIC DEVICE” (SEMICONDUCTOR ENERGY LABORATORY CO., LTD., priority 2022, published 2025).

This data set is described as follows: Solubility test in water (visual inspection for an insoluble residue). The data set is classed as physicochemical. The conditions noted are these: for solubility in water relative to the solubility of hpp2Py in water: fraction of the hpp2Py solubility in water. Here is the method: In a sample bottle (capacity: 20 mL) was put 1.16 mg of 1,1′-(9,9′-spirobi[9H-fluorene]-2,7-diyl)bis(1,3,4,6,7,8-hexahydro-2H-pyrimido[1,2-a]pyrimidine) (abbreviation: 2,7hpp2SF), and 0.5 mL of water was added thereto. This mixture was irradiated with ultrasonic waves for one minute. A precipitated white powder was found by visual inspection for an insoluble residue. After further addition of 0.5 mL of water and one-minute ultrasonic wave irradiation, a precipitated white powder was found by visual inspection. This procedure was repeatedly executed until the dissolution was confirmed by visual inspection.
The precipitated white powder was found until the total amount of water reached 3.0 mL. After further addition of 0.5 mL of water and ultrasonic wave irradiation, no precipitated white powder was found.
In a sample bottle (capacity: 100 mL) was put 1.08 mg of 1-(9,9′-spirobi[9H-fluorene]-2-yl)-1,3,4,6,7,8-hexahydro-2H-pyrimido[1,2-a]pyrimidine) (abbreviation: 2hppSF), and 50 mL of water was added thereto. A precipitated white powder was found by visual inspection for an insoluble residue. When 10 mL of water was further added, the precipitated white powder was not observed by visual inspection.
In a sample bottle (capacity: 5 mL) was put 50.2 mg of 1,1′-pyridine-2,6-diyl-bis(1,3,4,6,7,8-hexahydro-2H-pyrimido[1,2-a]pyrimidine) (abbreviation: hpp2Py), and 1.0 mL of water was added thereto. The dissolution was found by visual inspection for an insoluble residue.

Turning to `c1ccc2c(c1)-c1ccccc1C21c2cc(N3CCCN4CCCN=C43)ccc2-c2ccc(N3CCCN4CCCN=C43)cc21` [2,7hpp2SF, 1,1′-(9,9′-spirobi[9H-fluoren]-2,7-diyl)bis(1,3,4,6,7,8-hexahydro-2H-pyrimido[1,2-a]pyrimidine)], the “solubility in water relative to the solubility of hpp2Py in water” value is recorded as “less than or equal to 1/10”.

Turning to `c1ccc2c(c1)-c1ccccc1C21c2ccccc2-c2ccc(N3CCCN4CCCN=C43)cc21` [2hppSF, 1-(9,9′-spirobi[9H-fluoren]-2-yl)-1,3,4,6,7,8-hexahydro-2H-pyrimido[1,2-a]pyrimidine], the “solubility in water relative to the solubility of hpp2Py in water” value was “less than or equal to 1/10”.

As to `c1cc(N2CCCN3CCCN=C32)nc(N2CCCN3CCCN=C32)c1` [hpp2Py, 1,1′-pyridine-2,6-diyl-bis(1,3,4,6,7,8-hexahydro-2H-pyrimido[1,2-a]pyrimidine), reference compound], for the setting “per 1.0 mL of water, dissolution confirmed by visual inspection”, the “weight which can be dissolved in 1.0 mL of water” value is “greater than or equal to 50.2 mg”.
